In ChEMBL document CHEMBL1201862, “PubChem BioAssay data set” (2004):
Active and inactive are the calls of the source.

Legend:
Aminopeptidase N = biological target: T1, Aminopeptidase N (Plasmodium falciparum FcB1/Columbia, UniProt O96935); assay: malaria alanyl aminopeptidase activity blockers – biochemical, fluorogenic H-Leu-NHMec substrate, 1536-well (AID 1445); parameters: species or system Plasmodium falciparum 3D7, 3D7
T1 sequence (O96935 whole entry): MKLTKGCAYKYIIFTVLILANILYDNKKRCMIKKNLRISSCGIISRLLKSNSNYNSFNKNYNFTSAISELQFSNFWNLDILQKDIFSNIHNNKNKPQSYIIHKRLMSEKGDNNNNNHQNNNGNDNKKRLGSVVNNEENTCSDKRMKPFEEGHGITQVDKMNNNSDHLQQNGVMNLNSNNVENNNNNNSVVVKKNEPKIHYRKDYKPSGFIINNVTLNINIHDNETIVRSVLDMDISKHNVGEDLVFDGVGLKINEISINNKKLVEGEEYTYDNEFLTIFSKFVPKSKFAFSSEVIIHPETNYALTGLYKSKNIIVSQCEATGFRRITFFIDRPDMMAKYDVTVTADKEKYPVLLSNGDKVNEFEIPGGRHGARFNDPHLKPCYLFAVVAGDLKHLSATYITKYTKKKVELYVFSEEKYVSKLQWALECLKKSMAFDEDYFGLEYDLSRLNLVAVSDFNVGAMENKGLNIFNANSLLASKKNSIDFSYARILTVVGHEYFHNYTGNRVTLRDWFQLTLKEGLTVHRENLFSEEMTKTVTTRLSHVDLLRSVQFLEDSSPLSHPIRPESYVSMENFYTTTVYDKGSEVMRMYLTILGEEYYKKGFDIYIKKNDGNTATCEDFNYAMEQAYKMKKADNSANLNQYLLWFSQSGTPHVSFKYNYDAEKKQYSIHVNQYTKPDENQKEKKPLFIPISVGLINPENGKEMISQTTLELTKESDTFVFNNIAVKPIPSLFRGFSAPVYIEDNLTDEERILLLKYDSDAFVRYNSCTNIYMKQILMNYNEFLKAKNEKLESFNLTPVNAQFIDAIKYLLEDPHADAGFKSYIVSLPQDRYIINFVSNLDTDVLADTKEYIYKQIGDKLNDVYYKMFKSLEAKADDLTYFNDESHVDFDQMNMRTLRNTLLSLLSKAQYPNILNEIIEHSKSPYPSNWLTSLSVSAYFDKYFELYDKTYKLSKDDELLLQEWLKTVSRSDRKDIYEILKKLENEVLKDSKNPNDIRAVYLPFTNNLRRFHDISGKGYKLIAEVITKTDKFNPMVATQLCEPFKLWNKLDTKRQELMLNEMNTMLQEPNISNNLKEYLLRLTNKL

[1] = biological target: T2, Voltage-gated inwardly rectifying potassium channel KCNH2 (Homo sapiens, UniProt Q12809); assay: concentration-dependent hERG rescue from blockers – cell-based, thallium flux, dose response (AID 2121); format: ADME
[2] = biological target: T2, Voltage-gated inwardly rectifying potassium channel KCNH2; assay: dose-dependent reversal of dofetilide hERG block – manual patch clamp, HEK293 cells, dose response (AID 2638); format: ADME
[3] = non-specific 3'UTR reporter inhibition in Clone20-Shn3RL – cell-based, Renilla luciferase, cherry-picked, counter-screen for Shn3 inhibitor project, dose response (AID 624133); format: functional
[4] = fluconazole-exposed Candida albicans growth modulators – fluorescence, retest, confirmation (AID 2467); format: functional, cell-based
[5] = NIH-3T3 fibroblast cytotoxicity, dose response, cytotoxicity control, cell-based, fluorescence, Alamar Blue, secondary assay (AID 2327); format: functional;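 note: NIH-3T3 mouse fibroblasts cultured with fluconazole at 8 µg/mL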
[6] = A549 cell cytotoxicity, dose response, cytotoxicity control, plate reader, cherry-pick, antagonist series (AID 743412); format: functional, cell-based
Beta Lactamase = Beta Lactamase (Pseudomonas aeruginosa, UniProt Q932Y6); assay: BLA reporter interference, concentration series – BLA reporter cells, FRET fluorescence, artefact control for TLR9-MyD88 binding inhibitor project, dose response (AID 588341); format: cell-based;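 note: cell based assay in CHO-K1 cells stably expressing beta-lactamase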
[7] = biological target: Bifunctional protein GlmU (Mycobacterium tuberculosis, UniProt P9WMN3); assay: Inhibitors of Mycobacterial Glucosamine-1-phosphate acetyl transferase (GlmU). Secondary screen.; parameters: species or system Mycobacterium tuberculosis H37Rv
Protein RecA = biological target: T3, Protein RecA (Mycobacterium tuberculosis, UniProt P9WHJ3); assay: Fluorescence Cell-Free Homogeneous Dose Retest to Identify Inhibitors of RecA-Intein Splicing Activity. [Related pubchem assays (depositor defined):AID2097, AID2223, AID489010, AID492950]; format: functional
T3 sequence (P9WHJ3 whole entry): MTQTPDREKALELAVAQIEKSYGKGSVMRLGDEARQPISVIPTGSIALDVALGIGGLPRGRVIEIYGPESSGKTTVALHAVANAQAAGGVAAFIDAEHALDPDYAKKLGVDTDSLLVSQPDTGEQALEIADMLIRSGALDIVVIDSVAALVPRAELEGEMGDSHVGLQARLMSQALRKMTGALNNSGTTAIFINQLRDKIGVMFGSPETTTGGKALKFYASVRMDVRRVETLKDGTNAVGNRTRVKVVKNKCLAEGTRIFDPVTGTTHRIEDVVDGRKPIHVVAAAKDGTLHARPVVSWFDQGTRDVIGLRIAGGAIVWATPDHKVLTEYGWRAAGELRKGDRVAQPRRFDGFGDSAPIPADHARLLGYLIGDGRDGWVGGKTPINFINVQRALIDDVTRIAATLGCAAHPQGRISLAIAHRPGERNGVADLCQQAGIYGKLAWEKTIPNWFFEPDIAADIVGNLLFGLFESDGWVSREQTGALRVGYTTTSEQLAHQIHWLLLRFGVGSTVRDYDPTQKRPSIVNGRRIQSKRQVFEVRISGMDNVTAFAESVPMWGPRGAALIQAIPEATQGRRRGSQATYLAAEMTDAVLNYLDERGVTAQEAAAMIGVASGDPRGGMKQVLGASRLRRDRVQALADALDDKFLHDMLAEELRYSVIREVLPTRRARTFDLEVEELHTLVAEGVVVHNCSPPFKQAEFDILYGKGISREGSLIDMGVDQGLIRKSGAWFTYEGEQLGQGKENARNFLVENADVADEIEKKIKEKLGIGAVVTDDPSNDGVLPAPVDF

[8] = NIH3T3 cell viability loss – ATP luminescence, mouse fibroblasts, counter-screen, dose response (AID 2010); format: functional, cell-based;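 note: cells exposed to compound for about 90 hours before reading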
[9] = biological target: G-protein coupled receptor 55 (Homo sapiens, UniProt Q9Y2T6); assay: inhibition of LPI-stimulated GPR55 beta-arrestin translocation – imaging, U2OS, beta-arrestin-GFP, LPI agonist, primary screen (AID 2013); format: functional;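 note: antagonist potency measured as reduced agonist-driven arrestin aggregation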
[10] = biological target: T4, Replicative DNA helicase DnaB (Mycobacterium tuberculosis, UniProt P9WMR3); assay: DnaB intein splicing inhibitors, dose response, biochemical, cell-free fluorescence (AID 449749); format: functional
T4 sequence (P9WMR3 whole entry): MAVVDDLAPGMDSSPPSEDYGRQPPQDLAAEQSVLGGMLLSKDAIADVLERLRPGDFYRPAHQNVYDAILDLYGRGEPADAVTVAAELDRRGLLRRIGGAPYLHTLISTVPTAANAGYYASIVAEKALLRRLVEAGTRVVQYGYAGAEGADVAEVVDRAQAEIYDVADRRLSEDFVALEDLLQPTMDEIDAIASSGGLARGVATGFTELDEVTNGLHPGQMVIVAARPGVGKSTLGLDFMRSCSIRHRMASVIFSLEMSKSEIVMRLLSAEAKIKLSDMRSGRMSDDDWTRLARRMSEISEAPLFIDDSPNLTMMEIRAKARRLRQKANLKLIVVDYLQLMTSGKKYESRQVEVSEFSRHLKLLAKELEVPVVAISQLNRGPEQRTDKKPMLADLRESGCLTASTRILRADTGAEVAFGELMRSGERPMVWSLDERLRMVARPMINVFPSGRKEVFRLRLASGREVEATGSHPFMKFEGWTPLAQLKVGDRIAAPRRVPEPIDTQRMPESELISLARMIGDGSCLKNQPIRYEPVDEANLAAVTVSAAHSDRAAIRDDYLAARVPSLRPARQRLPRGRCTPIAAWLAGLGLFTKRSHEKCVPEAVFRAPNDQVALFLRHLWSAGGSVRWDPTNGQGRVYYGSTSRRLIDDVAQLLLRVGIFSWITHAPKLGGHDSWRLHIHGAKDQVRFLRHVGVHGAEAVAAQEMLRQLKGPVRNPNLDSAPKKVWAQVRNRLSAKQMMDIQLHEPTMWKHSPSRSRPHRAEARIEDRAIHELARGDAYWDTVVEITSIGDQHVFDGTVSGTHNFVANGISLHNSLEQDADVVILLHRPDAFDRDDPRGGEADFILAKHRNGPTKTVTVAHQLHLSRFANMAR

[11] = Luminescent dose response cell-based high throughput screening assay for inhibitors of the Janus kinase 2 mutant JAK2V617F. [Related pubchem assays: 1446 (Primary screen.), 1521 (Confirmation assay.), 1486 (Counter screen.)]; format: functional
[12] = viability loss in HEK293 cells – cell-based, plate reader, cherry-picked samples, cytotoxicity control, dose response (AID 743446); format: functional
[13] = reduction of Shn3 3'UTR-driven luciferase in osteoblasts – cell-based, Clone20 osteoblasts, firefly luciferase, cherry-picked, dose response (AID 624132); format: functional;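 note: firefly luciferase luminescence from reporter carrying the Shn3 3'UTR in osteoblasts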
[14] = toxicity toward HepG2 liver cells – cell-based, plate reader, cherry-pick, antagonist series, cytotoxicity control, dose response (AID 743416); format: functional
[15] = blockers of bursicon-stimulated LGR2 cAMP reporter – cell-based, HEK293, CRE-luciferase reporter, cherry pick, set 2, dose response (AID 743343); format: functional;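 note: transfected cells were stimulated with diluted bursicon conditioned medium after compound addition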
[16] = Trypanosoma cruzi growth suppression in host cells – NIH3T3 host cells, beta-gal luminescence, confirmation (AID 2044); format: functional, cell-based;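 note: intracellular parasites grown in NIH/3T3 mouse fibroblasts as host cells; luminescent beta-galactosidase reporter signal from transgenic T. cruzi replicating inside host cells; inhibitors lower the luminescence signal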
CHO = CHO cell viability loss, potency – luminescence, cytotoxicity control for TLR9-MyD88 binding inhibitor project, dose response (AID 588339); format: functional, cell-based, hamster; settings: Cricetulus griseus;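 note: CHO cells stably coexpressing TLR9 and MyD88 fusions from primary screen; compound exposure lasted 48 hours before viability readout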
[17] = blockade of melanocortin 4 receptor signaling – cell-based, plate reader, cherry pick, counter-screen for LGR2 antagonist project, dose response (AID 743444); format: functional;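 note: transfected HEK 293 cells stimulated with alpha-MSH peptide; potency of inhibitors of the alpha-MSH evoked signal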

T2 sequence (Q12809 whole entry): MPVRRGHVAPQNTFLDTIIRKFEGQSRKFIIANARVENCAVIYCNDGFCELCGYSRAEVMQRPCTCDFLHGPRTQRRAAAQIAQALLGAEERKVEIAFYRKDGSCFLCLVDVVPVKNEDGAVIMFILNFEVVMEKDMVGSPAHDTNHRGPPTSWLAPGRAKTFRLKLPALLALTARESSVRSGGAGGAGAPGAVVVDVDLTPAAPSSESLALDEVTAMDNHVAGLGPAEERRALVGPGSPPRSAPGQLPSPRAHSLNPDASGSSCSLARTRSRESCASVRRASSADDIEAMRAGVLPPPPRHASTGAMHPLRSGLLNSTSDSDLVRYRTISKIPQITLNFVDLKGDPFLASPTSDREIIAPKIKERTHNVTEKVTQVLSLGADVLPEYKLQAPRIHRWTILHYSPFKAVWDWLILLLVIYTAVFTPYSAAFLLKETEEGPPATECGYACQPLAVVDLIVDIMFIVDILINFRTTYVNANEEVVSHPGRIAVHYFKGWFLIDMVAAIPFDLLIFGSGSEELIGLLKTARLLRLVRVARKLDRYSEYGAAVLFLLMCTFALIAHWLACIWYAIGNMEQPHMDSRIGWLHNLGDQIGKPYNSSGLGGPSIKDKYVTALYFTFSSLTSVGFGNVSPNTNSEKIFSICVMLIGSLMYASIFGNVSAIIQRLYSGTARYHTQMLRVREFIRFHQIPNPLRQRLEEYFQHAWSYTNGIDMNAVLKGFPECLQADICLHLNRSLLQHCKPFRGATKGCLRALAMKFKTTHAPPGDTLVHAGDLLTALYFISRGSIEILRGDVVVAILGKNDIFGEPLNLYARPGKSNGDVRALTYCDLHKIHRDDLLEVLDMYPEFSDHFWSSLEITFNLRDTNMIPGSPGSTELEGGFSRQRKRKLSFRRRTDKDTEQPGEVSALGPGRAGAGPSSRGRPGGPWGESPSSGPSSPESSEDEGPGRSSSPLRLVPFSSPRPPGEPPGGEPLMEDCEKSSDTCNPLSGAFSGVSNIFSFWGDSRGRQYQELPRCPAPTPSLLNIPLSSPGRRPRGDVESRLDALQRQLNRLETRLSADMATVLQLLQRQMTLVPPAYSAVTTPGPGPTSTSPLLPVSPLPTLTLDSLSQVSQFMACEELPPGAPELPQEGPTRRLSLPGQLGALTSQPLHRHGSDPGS
Sequence of G-protein coupled receptor 55 (Q9Y2T6 whole entry): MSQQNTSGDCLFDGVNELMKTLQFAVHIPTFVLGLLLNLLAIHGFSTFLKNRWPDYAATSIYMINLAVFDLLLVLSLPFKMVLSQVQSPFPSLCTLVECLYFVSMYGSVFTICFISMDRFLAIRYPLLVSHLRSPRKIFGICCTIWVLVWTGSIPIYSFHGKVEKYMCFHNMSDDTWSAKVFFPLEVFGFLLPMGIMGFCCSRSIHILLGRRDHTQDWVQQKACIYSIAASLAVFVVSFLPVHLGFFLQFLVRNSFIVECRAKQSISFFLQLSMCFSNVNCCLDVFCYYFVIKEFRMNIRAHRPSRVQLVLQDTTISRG
Sequence of Bifunctional protein GlmU (P9WMN3 whole entry): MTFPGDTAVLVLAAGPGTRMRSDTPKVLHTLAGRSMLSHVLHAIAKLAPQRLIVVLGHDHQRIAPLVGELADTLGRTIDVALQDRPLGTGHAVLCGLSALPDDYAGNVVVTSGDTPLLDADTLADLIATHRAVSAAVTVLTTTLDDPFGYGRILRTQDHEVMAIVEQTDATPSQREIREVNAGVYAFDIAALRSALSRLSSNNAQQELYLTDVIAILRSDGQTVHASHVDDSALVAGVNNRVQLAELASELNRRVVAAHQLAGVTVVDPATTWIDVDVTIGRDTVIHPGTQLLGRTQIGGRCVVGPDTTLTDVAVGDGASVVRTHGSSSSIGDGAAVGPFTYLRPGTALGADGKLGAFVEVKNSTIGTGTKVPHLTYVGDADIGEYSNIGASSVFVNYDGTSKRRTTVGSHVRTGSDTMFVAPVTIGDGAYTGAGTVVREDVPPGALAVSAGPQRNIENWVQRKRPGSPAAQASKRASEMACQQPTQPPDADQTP
Sequence of Beta Lactamase (Q932Y6 whole entry): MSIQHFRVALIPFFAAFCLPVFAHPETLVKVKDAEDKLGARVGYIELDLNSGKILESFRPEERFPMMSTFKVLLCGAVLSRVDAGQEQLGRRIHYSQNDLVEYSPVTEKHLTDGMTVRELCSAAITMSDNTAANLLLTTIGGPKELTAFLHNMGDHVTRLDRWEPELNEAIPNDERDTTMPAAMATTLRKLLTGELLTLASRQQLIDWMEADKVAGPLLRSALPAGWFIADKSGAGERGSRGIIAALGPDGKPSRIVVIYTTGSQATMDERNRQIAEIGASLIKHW

SMILES: CCC1CCCCN1C(=S)NC(=O)c1cccs1 (stereo unspecified)
- IC50 (Aminopeptidase N): 30 µM (active)
- EC50 [1]: 0.29 µM (active)
- EC50 [2]: 5.2 µM (active)

SMILES: CNC(=O)c1nnsc1[S+]([O-])c1ccc(Cl)cc1 (stereo unspecified)
- AC50 [3]: 6.49 µM (active)
- EC50 [4]: 2.07 µM (active)
- EC50 [5]: 5.05 µM (inconclusive)
- AC50 [6]: 11.5 µM (active)
- IC50 (Beta Lactamase): 19.6 µM (inactive)
- IC50 [7]: 108 µM (active)
- EC50 (Protein RecA): 21 µM (active)
- EC50 [8]: 1.9 µM (active)
- IC50 [9]: 2.73 µM (active)
- AC50 [10]: 41.2 µM (active)
- IC50 [11]: 0.707 µM (active)
- AC50 [12]: 12 µM (active)
- AC50 [13]: 2.02 µM (active)
- AC50 [14]: 9.72 µM (active)
- AC50 [15]: 2.58 µM (active)
- EC50 [16]: 0.977 µM (active)
- IC50 (CHO): 2.23 µM (active)
- AC50 [17]: 2.49 µM (active)
